What was measured:
20 line panel = assay: Viability in 20 cell line panel correlated with CCLE mRNA levels; assay type: cell-based
Procedure: FIG. 36A-B. Viability assays performed in each cell line with compound treatment with CBR-470-1. Concentrations ranging from 0.1 to 30 micromolar for 48 hr. Viability was measured using Cell titer glo ATP quantification assay. Representative curves for three cell lines at 48 are shown on the left in (A). Table of 20 cell line IC50 values are shown in (B).
It was analyzed whether 1,3-BPG, which is directly metabolized by PGK1, could be involved in signaling to the KEAP1-NRF2 pathway via phosphoglyceryl-lysine (pgK) modification of KEAP1. […] Viability assays were performed in IMR32, OVCAR3, and A549 cell lines with compound treatment with CBR-470-1. Concentrations ranging from 0.1 to 30 micromolar for 48 hr. Viability was measured using Cell titer glo ATP quantification assay. Representative curves for three cell lines at 48 are shown in (FIG. 36A). Table of 20 cell line IC50 values are shown in (FIG. 36B).
Each point in FIG. 37 represents the correlation value (R^2) between cell line IC50 value (i.e. sensitivity) to CBR-470 plotted against the relative mRNA level (Z-score) for that cell line, and all other cell lines in the 20 line panel. mRNA levels were curated from the cancer cell line encyclopedia (CCLE).

KEAP1 = molecular target: T1, KEAP1 (Homo sapiens, UniProt Q14145); assay: MGx dose-response HMW-KEAP1 formation in FLAG-KEAP1 lysates or purified KEAP1; assay type: biochemical; details: FLAG-KEAP1 containing lysates or purified KEAP1, freshly distilled MGx
T1 construct: full-length, human KEAP1 (28023, Addgene) was transiently expressed from a pcDNA/FRT/TO plasmid with a C-terminal 3×FLAG tag; host or cells: HEK293T
Procedure: Metabolite Treatments and HMW-KEAP1 screening. For in vitro screening of glycolytic metabolites, HEK293T cells expressing FLAG-KEAP1 were lysed by snap-freeze-thaw cycles (3×) in PBS, pH 7.4, containing EDTA-free complete protease inhibitor (Roche). Lysates were cleared by centrifugation and the supernatants normalized for concentration by Bradford reagent (2 mg/mL). Concentrated stocks of each metabolite were made in PBS, which were added to the lysate samples for the final indicated concentrations and incubated at 37° C. for 2.5 hours with shaking. Following incubation, samples were denatured with 6 M urea and processed for SDS-PAGE and western blotting. Methylglyoxal (40% v/v with H2O), glyceraldehyde 3-phosphate (GAP), dihydroxyacetone phosphate (DHAP), and 2,3-bisphosphoglycerate (2,3-BPG) were all obtained from Sigma Aldrich and used as PBS stocks. […] Each mixture was incubated at 37° C. for 8 hours with rotating, HMW-KEAP1 formation was analyzed by SDS-PAGE and western blot.
For studies with recombinant KEAP1, FLAG-KEAP1 was expressed in HEK293T cells from transient transfection of the Flag-Keap1 plasmid (Addgene plasmid #28023). […] 12 μL of this reaction was then separated by SDS-PAGE and the presence of HMW-KEAP1 evaluated by anti-FLAG Western blotting as described or by silver staining using the Pierce Silver Stain Kit (ThermoFisher Scientific).

T1 sequence (Q14145 whole entry): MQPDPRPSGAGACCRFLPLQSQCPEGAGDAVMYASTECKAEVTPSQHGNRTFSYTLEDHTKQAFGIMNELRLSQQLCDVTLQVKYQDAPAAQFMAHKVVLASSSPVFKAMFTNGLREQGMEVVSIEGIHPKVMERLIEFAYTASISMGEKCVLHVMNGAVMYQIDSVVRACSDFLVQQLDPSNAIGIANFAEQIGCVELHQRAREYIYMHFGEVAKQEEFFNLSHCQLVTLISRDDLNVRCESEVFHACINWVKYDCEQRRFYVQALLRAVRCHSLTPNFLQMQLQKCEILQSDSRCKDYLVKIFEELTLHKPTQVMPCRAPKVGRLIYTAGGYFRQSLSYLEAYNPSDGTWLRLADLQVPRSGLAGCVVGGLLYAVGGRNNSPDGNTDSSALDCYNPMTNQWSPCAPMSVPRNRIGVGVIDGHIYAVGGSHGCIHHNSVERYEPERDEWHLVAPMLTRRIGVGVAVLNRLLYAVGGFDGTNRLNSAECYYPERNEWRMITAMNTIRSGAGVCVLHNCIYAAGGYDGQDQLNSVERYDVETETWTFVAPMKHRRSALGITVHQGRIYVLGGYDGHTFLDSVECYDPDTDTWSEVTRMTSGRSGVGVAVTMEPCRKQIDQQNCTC

Row | SMILES | sensitivity (IC50) versus GLO1 mRNA level (20 line panel) | sensitivity (IC50) versus NRF2 target gene expression (20 line panel) | formation of HMW-KEAP1 (KEAP1)
1 | CC(C)CN[C@H]1CS(=O)(=O)C[C@@H]1S(=O)(=O)c1ccc(Cl)cc1 [CBR-470-1] | high GLO1 exhibit higher sensitivity | lower NRF2 target gene expression show increased sensitivity | –
2 | CC(=O)C=O [MGx, methylglyoxal, reference compound] | – | – | dose-dependent formation of HMW-KEAP1 at mid-μM concentrations

— patent US12048686B2, “Compositions and methods for activating NRF2-dependent gene expression” (The University of Chicago, priority 2018, dated 2024)
